Earlier results on 16 compounds are cited in patent publication US12193458B2, “Sweetening composition and preparation method and use thereof” (HUNAN NUTRAMAX INC., priority 2019, dated 2025).

For the first data set the following is noted: pH value of 3 to 12, heated, under light irradiation.
Consider `C=C1C[C@@]23CC[C@H]4[C@@](C)(CCC[C@@]4(C)C(=O)O[C@@H]4O[C@H](CO)[C@@H](O)[C@H](O)[C@H]4O)[C@@H]2CC[C@]1(O[C@@H]1O[C@H](CO)[C@@H](O)[C@H](O)[C@H]1O)C3` [Rubusoside], for which the “decomposition when heated in a water solution” value is on record as “will not decompose significantly”.

The conditions of another data set: component of Rubus suavissimus S. Lee.
In the case of Suavioside F, the taste result was “bitter taste”. Take Suavioside H: the taste entry is given as “sweet taste”. On to Suavioside B, for which the taste entry is “sweet taste”. In the case of Suavioside C1, the taste entry is listed as “bitter taste”. For Suavioside I, the taste result was “sweet taste”.

As for Suavioside D2, the taste entry is “bitter taste”. On to `C[C@@]12CCC[C@@](C)(C(=O)O[C@@H]3O[C@H](CO)[C@@H](O)[C@H](O)[C@H]3O)[C@H]1CC[C@@]13C[C@@H](CC[C@H]12)[C@@](O)(CO)C3` [Paniculoside IV], for which the taste result was “tasteless”. `C=C1C[C@@]23CC[C@H]4[C@@](C)(CCC[C@@]4(C)C(=O)O)[C@@H]2CC[C@]1(O[C@@H]1O[C@H](CO)[C@@H](O)[C@H](O)[C@H]1O)C3` [Steviolmonoside]: the taste entry was “sweet taste”.

Take `CC1(C)C(=O)CCC2(C)C3CCC4CC3(CCC12)CC4(O)COC1OC(CO)C(O)C(O)C1O` (stereo not shown) [Sugereoside]: the taste entry is “bitter taste”. As for Suavioside J, the taste result is reported as “sweet taste”. For the compound Suavioside G, the taste entry was “sweet taste”. In the case of `CC1(C)C(O)CCC2(C)C3CCC4CC3(CCC12)CC4(O)COC1OC(CO)C(O)C(O)C1O` (stereo not shown) [Suavioside A], the taste entry is reported as “sweet taste”. Consider `C[C@@H]1CC[C@]2(C(=O)O[C@@H]3O[C@H](CO)[C@@H](O)[C@H](O)[C@H]3O)CC[C@]3(C)C(=CC[C@@H]4[C@@]5(C)C[C@@H](O)[C@H](O)[C@@](C)(CO)[C@@H]5CC[C@]43C)[C@@H]2[C@]1(C)O` [Nigaichigoside F1], for which the taste result was “bitter taste”. With Suavioside D1, the taste entry is on record as “tasteless”.

For Suavioside E, the taste result is reported as “tasteless”.
